Data reported in paper PMC9657303, “Phenylethanoid and Phenylmethanoid Glycosides from the Leaves of Ligustrum robustum and Their Bioactivities” (Molecules, 2022).

What was measured:
[1] = ABTS radical scavenging assay; details: mean ± SD (n = 3)
Procedure: (§1) S1.4. DPPH radical scavenging assay […]
S1.5. ABTS radical scavenging assay
The ABTS radical scavenging assay was used also to evaluate the antioxidant activity of compounds 1-11. The ABTS free radical cation (ABTS•+ )was manufactured by reacting ABTS stock solution (7 mM) with potassium persulphate

[2] = tested on: α-amylase; experiment: α-amylase inhibitory activity; format: biochemical; details: for α-Amylase Inhibition at 0.1 mM: mean ± SD (n = 3), NA: no activity; for α-amylase inhibitory effects (in words): weaker than the positive control acarbose
Procedure: S1.3. Determination of α-amylase inhibitory activity
Phosphate buffer (20 mM, pH 6.9, containing 6 mM NaCl) was used as the […]
µL, 1%, w/v) were mixed and incubated in a 96-well microplate at37 °C for 10 min.
Then, α-amylase solution (50 µL, 0.2 U/mL) was added and the mixture was incubated at 37 °C for an additional 10 min. The reaction was stopped by addition of […]
microplate was immediately heated in 95 °C water bath for 10 min. When the reaction solution cooled to room temperature, allsamples were diluted by adding distilled water (50 µL), and then their absorbance was measured using a microplate reader at […]
starch solution) at 540 nm, thus the inhibitory activity was calculated as (Acontrol-Asample)/Acontrol×100%, in which Asample was the absorbance of the sample and Acontrol was the absorbance of the phosphate buffer control without test samples. Acarbose was used as the positive control.
as §1

[3] = DPPH radical scavenging assay; details: mean ± SD (n = 3); NA: no activity
Procedure: S1.4. DPPH radical scavenging assay
The DPPH radical scavenging assay was used to evaluate the antioxidant activity of compounds 1-11. In a 96-well microplate, 100 µL of DPPH solution (200 µM in ethanol) was added to 100 µL sample in ethanol at graded concentrations ranging from 7 to 500 µM. The mixture was incubated in the dark at room temperature for 30 min. The absorbance of the reaction mixture was measured at 517 nm using a microplate reader. The DPPH scavenging activity was calculated by the following formula: DPPH scavenging activity (%) = (Acontrol- Asample)/Acontrol×100%, where Acontrol was the absorbance of ethanol control without samples, Asample was the absorbance of sample. Ascorbic acid was used as the positive control in the […]

[4] = tested on: α-Glucosidase from yeast; experiment: α-glucosidase inhibitory activity; format: biochemical; details: for α-Glucosidase Inhibition at 0.1 mM: mean ± SD (n = 3), NA: no activity; for α-glucosidase inhibitory effects (in words): weaker than the positive control acarbose
Procedure: S1. Determination of bioactivities […]
S1.2. Determination of α-glucosidase inhibitory activity […]
diluted with phosphate buffer (0.1 M, pH 6.8). […]
and 4-nitrophenyl α-D-glucopyranoside (pNPG) solution (50 µL, 5 mM) were mixed and incubated in a 96-well microplate at 37 °C for 5 min. α-Glucosidase from yeast (50 µL, 0.2 U/mL) was added and incubated at 37 °C for another 30 min. Finally, 50 µL of Na2CO3 (1M) was added to terminate the reaction. The absorbance of mixture was measured using a microplate reader at a wavelength 405 nm. […]
following equation: α-glucosidase inhibition (%) = (Acontrol- Asample)/Acontrol×100%, where Acontrolrepresented the absorbance of phosphate buffer control without test samples, Asample represented the absorbance of test samples. Acarbose was used as the […]

[5] = molecular target: T1, FAS (Gallus gallus, UniProt P12276); experiment: FAS inhibitory activity; format: biochemical, chicken; details: mean ± SD (n = 3); NA: no activity
T1 construct: isolated from chicken liver; from tissue; host or cells: chicken liver
Procedure: S1. Determination of bioactivities
S1.1. Determination of FAS inhibitory activity […]
diluted with potassium phosphate buffer (0.1 M, pH 7.0). Sample solution (100 µL, 20-2000 μM, 37 °C) and FAS substrates (1.8 mL, 37 °C) were mixed in a cuvette, and then FAS solution (100 µL, 37 °C, isolated from chicken liver and kept in ice-bath before use) was added. The absorbance of reaction mixture was monitored by a UV-vis spectrophotometer at340 nm in 1 min. The inhibitory effect was calculated by the following equation: FAS inhibition (%) = (Acontrol-Asample)/Acontrol× 100%, where Acontrolrepresented the FAS activity in the control group (phosphate buffer instead of sample solution), Asamplerepresented the FAS activity in the sample groups. The FAS activity was calculated as (A0 -A1)/1 min, in which A0 was the absorbance of the reaction mixture when the FAS was added, and A1 was the absorbance of the reaction mixture after reaction 1 min. Orlistat was used as the positive control.
FAS substrates: 0.1 M potassium phosphate buffer (pH 7.0), 1 mM ethylene-diaminetetraacetic acid (EDTA), 1 mM dithiothreitol, 3 µM acetyl-coenzyme A, 10 µM […], 35 µM NADPH. […]

T1 sequence (P12276 2-2512 limits assumed): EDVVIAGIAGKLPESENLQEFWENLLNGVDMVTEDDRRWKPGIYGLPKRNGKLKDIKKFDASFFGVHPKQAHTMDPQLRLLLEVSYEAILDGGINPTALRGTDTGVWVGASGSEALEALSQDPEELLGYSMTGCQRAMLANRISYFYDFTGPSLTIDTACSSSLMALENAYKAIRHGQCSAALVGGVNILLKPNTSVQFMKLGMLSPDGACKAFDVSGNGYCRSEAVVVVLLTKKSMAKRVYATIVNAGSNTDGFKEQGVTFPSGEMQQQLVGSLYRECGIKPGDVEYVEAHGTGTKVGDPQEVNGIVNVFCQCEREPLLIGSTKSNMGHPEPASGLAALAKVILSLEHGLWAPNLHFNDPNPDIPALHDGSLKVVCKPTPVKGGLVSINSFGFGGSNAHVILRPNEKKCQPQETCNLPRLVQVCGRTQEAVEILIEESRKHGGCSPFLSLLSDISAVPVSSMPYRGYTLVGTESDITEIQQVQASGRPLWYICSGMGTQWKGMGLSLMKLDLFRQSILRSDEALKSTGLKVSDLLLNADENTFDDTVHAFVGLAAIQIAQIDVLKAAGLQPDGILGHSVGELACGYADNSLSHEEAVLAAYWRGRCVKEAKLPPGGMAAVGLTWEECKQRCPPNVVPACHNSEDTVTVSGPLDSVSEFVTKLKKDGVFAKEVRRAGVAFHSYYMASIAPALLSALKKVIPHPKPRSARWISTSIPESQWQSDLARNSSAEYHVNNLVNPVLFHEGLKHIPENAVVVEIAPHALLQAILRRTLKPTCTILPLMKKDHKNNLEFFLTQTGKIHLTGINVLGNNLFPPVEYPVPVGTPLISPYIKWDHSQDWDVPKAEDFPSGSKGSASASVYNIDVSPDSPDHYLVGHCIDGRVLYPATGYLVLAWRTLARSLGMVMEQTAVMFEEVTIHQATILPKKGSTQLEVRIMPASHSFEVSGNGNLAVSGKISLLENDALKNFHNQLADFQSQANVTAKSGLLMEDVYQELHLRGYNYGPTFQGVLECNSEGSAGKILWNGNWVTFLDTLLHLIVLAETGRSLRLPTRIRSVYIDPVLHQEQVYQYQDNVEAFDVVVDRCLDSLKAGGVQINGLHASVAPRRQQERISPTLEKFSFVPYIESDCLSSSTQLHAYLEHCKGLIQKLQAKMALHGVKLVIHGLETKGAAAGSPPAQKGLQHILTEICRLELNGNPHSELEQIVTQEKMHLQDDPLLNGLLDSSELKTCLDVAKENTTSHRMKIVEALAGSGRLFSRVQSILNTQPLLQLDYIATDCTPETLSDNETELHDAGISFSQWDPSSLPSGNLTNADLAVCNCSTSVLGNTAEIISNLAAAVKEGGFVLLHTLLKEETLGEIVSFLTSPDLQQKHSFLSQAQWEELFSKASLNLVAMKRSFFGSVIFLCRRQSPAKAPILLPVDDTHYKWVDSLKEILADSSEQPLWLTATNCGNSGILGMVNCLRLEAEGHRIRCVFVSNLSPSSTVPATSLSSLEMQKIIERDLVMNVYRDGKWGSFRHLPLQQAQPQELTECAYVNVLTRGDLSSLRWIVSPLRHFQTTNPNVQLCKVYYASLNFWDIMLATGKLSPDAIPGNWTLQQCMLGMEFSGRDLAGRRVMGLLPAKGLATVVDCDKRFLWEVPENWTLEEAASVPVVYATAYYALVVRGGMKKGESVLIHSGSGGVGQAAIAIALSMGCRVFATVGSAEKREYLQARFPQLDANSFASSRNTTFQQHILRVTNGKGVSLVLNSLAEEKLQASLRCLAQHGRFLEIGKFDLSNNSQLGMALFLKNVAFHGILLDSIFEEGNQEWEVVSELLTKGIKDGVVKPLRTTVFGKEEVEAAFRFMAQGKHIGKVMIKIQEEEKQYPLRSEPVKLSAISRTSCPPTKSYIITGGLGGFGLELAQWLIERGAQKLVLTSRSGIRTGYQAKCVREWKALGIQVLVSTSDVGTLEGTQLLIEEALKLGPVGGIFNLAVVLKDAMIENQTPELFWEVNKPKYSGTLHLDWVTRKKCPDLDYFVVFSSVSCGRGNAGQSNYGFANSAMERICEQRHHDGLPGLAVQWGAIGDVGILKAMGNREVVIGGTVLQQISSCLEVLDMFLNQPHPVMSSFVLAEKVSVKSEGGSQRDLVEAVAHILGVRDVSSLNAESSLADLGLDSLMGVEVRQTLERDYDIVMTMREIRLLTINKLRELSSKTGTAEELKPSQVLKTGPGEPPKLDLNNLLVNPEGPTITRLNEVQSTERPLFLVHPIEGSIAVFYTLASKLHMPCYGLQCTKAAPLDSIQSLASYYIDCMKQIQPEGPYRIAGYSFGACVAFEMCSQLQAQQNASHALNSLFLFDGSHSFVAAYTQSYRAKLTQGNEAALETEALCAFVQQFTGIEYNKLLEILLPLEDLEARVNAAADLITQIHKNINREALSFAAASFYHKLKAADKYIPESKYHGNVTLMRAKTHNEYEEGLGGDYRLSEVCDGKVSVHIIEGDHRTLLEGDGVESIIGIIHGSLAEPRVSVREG

SMILES | IC50 [1] [µM] | α-Amylase Inhibition at 0.1 mM [2] | IC50 [3] [µM] | α-Glucosidase Inhibition at 0.1 mM [4] | α-glucosidase inhibitory effects (in words) [4] | IC50 [5] [µM] | α-amylase inhibitory effects (in words) [2]
CC1OC(OC2C(C)OC(OC3C(O)C(OCC(O)c4ccc(O)c(O)c4)OC(CO)C3OC(=O)C=Cc3ccc(O)cc3)C(O)C2O)C(O)C(O)C1O (stereo not drawn) [Compound 2] | 10.6 ± 0.48 | 10.6 ± 2.3 f % | 43.2 ± 1.06 | – | – | – | –
C[C@@H]1O[C@@H](O[C@@H]2[C@@H](O)[C@@H](O)[C@H](O[C@@H]3[C@@H](O)[C@H](OCC(=O)c4ccc(O)c(O)c4)O[C@H](CO)[C@H]3OC(=O)/C=C/c3ccc(O)cc3)O[C@H]2C)[C@H](O)[C@H](O)[C@H]1O [Compound 3, 2-(3,4-dihydroxyphenyl)-2-oxoethyl 3-O-[α-L-rhamnopyranosyl-(1→4)-α-L-rhamnopyranosyl]-4-O-(trans-p-coumaroyl)-O-β-D-glucopyranoside] | 4.13 ± 0.06 | – | 23.8 ± 0.89 | 42.3 ± 8.7 bc % | moderate | – | –
CC1OC(OC2C(O)C(OCc3ccccc3)OC(CO)C2OC(=O)C=Cc2ccc(O)cc2)C(O)C(O)C1O (stereo not drawn) [Compound 4] | – | – | – | – | – | 6.49 ± 0.27 | –
C[C@@H]1O[C@@H](O[C@@H]2[C@@H](O)[C@H](OCc3ccccc3)O[C@H](COC(=O)/C=C/c3ccc(O)cc3)[C@H]2O)[C@H](O)[C@H](O)[C@H]1O [Compound 5, benzyl 3-O-(α-L-rhamnopyranosyl)-6-O-(trans-p-coumaroyl)-O-β-D-glucopyranoside] | 4.86 ± 0.06 | – | > 250 | 45.1 ± 2.5 b % | moderate | – | –
C[C@@H]1O[C@@H](O[C@@H]2[C@@H](O)[C@H](OCc3ccccc3)O[C@H](COC(=O)/C=C\c3ccc(O)cc3)[C@H]2O)[C@H](O)[C@H](O)[C@H]1O [Compound 6, benzyl 3-O-(α-L-rhamnopyranosyl)-6-O-(cis-p-coumaroyl)-O-β-D-glucopyranoside] | 20.7 ± 0.22 | – | – | 36.5 ± 1.5 c % | – | – | –
C[C@@H]1O[C@@H](O[C@@H]2[C@@H](O)[C@@H](O)[C@H](O[C@@H]3[C@@H](O)[C@H](OCCc4ccc(O)cc4)O[C@H](CO)[C@H]3OC(=O)/C=C/c3ccc(O)cc3)O[C@H]2C)[C@H](O)[C@H](O)[C@H]1O [Compound 7, ligupurpuroside B] | 2.75 ± 0.09 | 19.9 ± 1.8 d % | > 250 | – | – | – | –
CC1OC(OC2C(C)OC(OC3C(O)C(OCCc4ccc(O)cc4)OC(CO)C3OC(=O)C=Cc3ccc(O)cc3)C(O)C2O)C(O)C(O)C1O (stereo not drawn) [Compound 8, cis-ligupurpuroside B] | 4.17 ± 0.06 | – | > 250 | – | – | – | –
C[C@@H]1O[C@@H](O[C@@H]2[C@@H](O)[C@@H](O)[C@H](O[C@@H]3[C@@H](O)[C@H](OCCc4ccc(O)cc4)O[C@H](CO)[C@H]3OC(=O)/C=C/c3ccc(O)c(O)c3)O[C@H]2C)[C@H](O)[C@H](O)[C@H]1O [Compound 9, ligurobustoside N] | 2.68 ± 0.05 | 15.9 ± 3.1 e % | 29.2 ± 0.37 | 25.4 ± 4.1 d % | – | 5.61 ± 0.44 | –
CC1OC(OC2C(O)C(OCCc3ccc(O)cc3)OC(CO)C2OC(=O)C=Cc2ccc(O)cc2)C(O)C(O)C1O (stereo not drawn) [Compound 10, osmanthuside D] | 3.34 ± 0.02 | 26.1 ± 1.9 c % | > 250 | 19.3 ± 5.6 e % | – | – | moderate
CC1OC(OC2C(O)C(COC(=O)C=Cc3ccc(O)cc3)OC(OCCc3ccc(O)cc3)C2O)C(O)C(O)C1O (stereo not drawn) [Compound 11, (Z)-osmanthuside B6] | 3.83 ± 0.05 | 23.5 ± 1.7 c % | > 250 | – | – | 4.55 ± 0.35 | moderate
O=C1O[C@H]([C@@H](O)CO)C(O)=C1O [L-(+)-ascorbic acid, reference compound] | 10.1 ± 0.19 | – | 13.66 ± 0.13 | – | – | – | –
